This note sets out measurements from patent US10611730B2, “Benzimidazolone and benzothiazolone compounds and their use as AMPA receptor modulators” (Janssen Pharmaceutica NV, priority 2015, dated 2020).

Chain of TARP γ8 dependent AMPA receptor (GluA1o-g8 fusion channel) (P42261 other isoform, or with tags, fused parts or gaps): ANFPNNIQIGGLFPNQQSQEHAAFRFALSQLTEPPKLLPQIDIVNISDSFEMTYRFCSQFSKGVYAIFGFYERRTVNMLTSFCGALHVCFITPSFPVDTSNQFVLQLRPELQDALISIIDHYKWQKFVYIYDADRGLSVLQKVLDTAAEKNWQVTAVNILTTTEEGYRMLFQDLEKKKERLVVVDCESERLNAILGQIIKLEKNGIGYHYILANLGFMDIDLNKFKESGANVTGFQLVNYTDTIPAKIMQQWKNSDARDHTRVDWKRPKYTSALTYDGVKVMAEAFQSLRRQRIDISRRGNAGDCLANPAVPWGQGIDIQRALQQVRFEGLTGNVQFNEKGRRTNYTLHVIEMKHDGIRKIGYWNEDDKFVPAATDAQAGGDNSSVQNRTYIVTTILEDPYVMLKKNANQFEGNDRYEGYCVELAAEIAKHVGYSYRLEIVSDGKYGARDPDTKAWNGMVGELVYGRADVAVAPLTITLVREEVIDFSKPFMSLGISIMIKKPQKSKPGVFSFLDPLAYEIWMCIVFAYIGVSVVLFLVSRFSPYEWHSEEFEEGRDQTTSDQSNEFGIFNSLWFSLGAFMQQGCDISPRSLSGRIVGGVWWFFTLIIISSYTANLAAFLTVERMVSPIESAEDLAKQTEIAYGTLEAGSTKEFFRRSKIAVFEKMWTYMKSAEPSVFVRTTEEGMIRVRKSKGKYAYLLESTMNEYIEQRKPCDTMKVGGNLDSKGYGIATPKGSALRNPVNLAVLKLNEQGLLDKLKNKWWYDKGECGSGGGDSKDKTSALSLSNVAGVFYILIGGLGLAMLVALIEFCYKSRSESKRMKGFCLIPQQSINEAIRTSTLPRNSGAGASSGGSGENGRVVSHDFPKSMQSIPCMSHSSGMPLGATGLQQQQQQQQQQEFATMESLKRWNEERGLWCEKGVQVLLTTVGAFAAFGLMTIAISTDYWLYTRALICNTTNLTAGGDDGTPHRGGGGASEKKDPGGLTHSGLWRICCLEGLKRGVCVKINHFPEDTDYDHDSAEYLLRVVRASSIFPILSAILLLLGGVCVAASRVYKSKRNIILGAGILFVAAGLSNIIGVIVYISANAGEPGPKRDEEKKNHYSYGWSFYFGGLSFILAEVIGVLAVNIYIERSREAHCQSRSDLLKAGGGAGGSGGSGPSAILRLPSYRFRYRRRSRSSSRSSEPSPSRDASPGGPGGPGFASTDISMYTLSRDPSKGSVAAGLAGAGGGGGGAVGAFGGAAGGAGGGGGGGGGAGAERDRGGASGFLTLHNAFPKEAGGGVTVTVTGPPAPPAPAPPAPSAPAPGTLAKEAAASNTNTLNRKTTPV

The target of one experiment is TARP γ8 dependent AMPA receptor (GluA1o-g8 fusion channel) (Homo sapiens (Human), UniProt P42261+Q8WXS5). Description: Calcium flux assay (FLIPR), HEK293 cells expressing GRIA1o-CACNG8 fusion. The experiment is classed as cell-based. As to conditions: inhibition of calcium flux after 15 μM glutamate. The source says:
This assay was used to test compounds for their ability to inhibit TARP γ8 dependent AMPA receptor activity.
An in vitro assay was used to determine the potency of test compounds as inhibitors of the glutamate response of the channel formed by GluA1o-g8. To ensure a 1:1 stoichiometry of GluA1o and g8 subunits in the expressed channel, a fusion of the cDNAs for GRIA1o and CACNG8 was used. […] A clonal cell line in HEK293 cells stably expressing this construct, with a geneticin selection marker, was generated for use in this assay. Cell expressing the GRIAlo-CACNG8 fusion construct were grown in a monolayer in 96- or 384-well microtiter plates. […] The cells were then loaded with a calcium-sensitive dye (Calcium-5 or Calcium-6, Molecular Devices) and the test compounds at a range of concentrations.
The fluorescence in each well was normalized to the fluorescence of negative and positive control wells. […] The responses to glutamate as functions of the test compound concentrations were fitted to a four-parameter logistic function. The fitted parameter corresponding to the midpoint was taken to be the potency of inhibition of the compound.
For orientation: Calcium flux is commonly read through the fluorescence of an indicator in the cells.
Consider `O=c1[nH]c2ccc(-c3c(Cl)cccc3OC(F)(F)F)cc2s1` [Example 76, 6-[2-Chloro-6-(trifluoromethoxy)phenyl]-3H-1,3-benzothiazol-2-one], for which the “GluR1-γ8 pIC50” value is reported as 8.6.

Still in this experiment, the particulars now being: inhibition of calcium flux after 15 μM glutamate, read-out: GluR1-γ8 pIC50 (converted).
With `N#CCc1cccc(C2CC2)c1-c1ccc2[nH]c(=O)[nH]c2c1` [Example 138, 2-[3-Cyclopropyl-2-(2-oxo-1,3-dihydrobenzimidazol-5-yl)phenyl]acetonitrile], the IC50 was 100 nM. With `Cc1c(C(=O)NC2CC2)cccc1-c1ccc2[nH]c(=O)[nH]c2c1` [Example 80, N-Cyclopropyl-2-methyl-3-(2-oxo-1,3-dihydrobenzimidazol-5-yl)benzamide], the IC50 was 3980 nM. On the same count and under the same terms, as for `O=c1[nH]c2ccc(-c3cccc(-c4nnc(C5CC5)o4)c3Cl)cc2[nH]1` [Example 196, 5-[2-Chloro-3-(5-cyclopropyl-1,3,4-oxadiazol-2-yl)phenyl]-1,3-dihydrobenzimidazol-2-one], the figure is 316 nM; as for `N#Cc1ccc(OC(F)(F)F)c(-c2ccc3[nH]c(=O)[nH]c3c2)c1Cl` [Example 208, 2-Chloro-3-(2-oxo-1,3-dihydrobenzimidazol-5-yl)-4-(trifluoromethoxy)benzonitrile], 15.8 nM. Still for that read-out and setting: the result for `O=c1[nH]c2ccc(-c3c(Cl)cccc3-c3ccc(F)nc3)cc2[nH]1` [Example 167, 5-[2-Chloro-6-(6-fluoro-3-pyridyl)phenyl]-1,3-dihydrobenzimidazol-2-one] reads 316 nM; that for `O=c1[nH]c2ccc(-c3c(Cl)cccc3OCC(F)(F)F)cc2[nH]1` [Example 95, 5-[2-Chloro-6-(2,2,2-trifluoroethoxy)phenyl]-1,3-dihydrobenzimidazol-2-one], 50.1 nM; that for `Cc1cc(Cl)cc(C)c1-c1ccc2[nH]c(=O)[nH]c2c1` [Example 37, 5-(4-Chloro-2,6-dimethyl-phenyl)-1,3-dihydrobenzimidazol-2-one], 794 nM. The same measure, in the same setting: as for `O=c1[nH]c2ccc(-c3c(Cl)cccc3Cl)cc2[nH]1` [Example 49, 5-(2,6-Dichlorophenyl)-1,3-dihydrobenzimidazol-2-one], the figure is 63.1 nM. Consider `COc1cccc(OCc2ccc(F)cc2)c1-c1ccc2[nH]c(=O)[nH]c2c1` [Example 106], for which the IC50 was 39.8 nM. Still for that read-out and setting: the result for `N#CCc1cccc(-c2ccccc2F)c1-c1ccc2[nH]c(=O)[nH]c2c1` [Example 136, 2-[3-(2-Fluorophenyl)-2-(2-oxo-1,3-dihydrobenzimidazol-5-yl)phenyl]acetonitrile] reads 158 nM; that for `CC(C)(C)OC(=O)N1CCN(c2ccccc2-c2ccc3[nH]c(=O)[nH]c3c2)CC1` [Example 9, tert-Butyl 4-[2-(2-oxo-1,3-dihydrobenzimidazol-5-yl)phenyl]piperazine-1-carboxylate], 794 nM.

Regarding `CC(C)Oc1ccc(C(F)(F)F)cc1-c1ccc2[nH]c(=O)[nH]c2c1` [Example 22, 5-[2-Isopropoxy-5-(trifluoromethyl)phenyl]-1,3-dihydrobenzimidazol-2-one], the IC50 is 316 nM. For the molecule `CC(C)Oc1cccc(C(F)(F)F)c1-c1ccc2[nH]c(=O)[nH]c2c1` [Example 108, 5-[2-Isopropoxy-6-(trifluoromethyl)phenyl]-1,3-dihydrobenzimidazol-2-one], the IC50 is 79.4 nM. On to `O=c1[nH]c2ccc(-c3ccccc3Cl)cc2[nH]1` [Example 17, 5-(2-Chlorophenyl)-1,3-dihydrobenzimidazol-2-one], for which the IC50 is 631 nM.

Turning to `N#Cc1ccc(-c2cccc(Cl)c2-c2ccc3[nH]c(=O)[nH]c3c2)cc1` [Example 164, 4-[3-Chloro-2-(2-oxo-1,3-dihydrobenzimidazol-5-yl)phenyl]benzonitrile], the IC50 was 39.8 nM. For `O=c1[nH]c2ccc(-c3c(Cl)cccc3-c3cncnc3)cc2[nH]1` [Example 178, 5-(2-Chloro-6-pyrimidin-5-yl-phenyl)-1,3-dihydrobenzimidazol-2-one], the IC50 was 3980 nM. For the molecule `Cc1ccc(C#N)cc1-c1ccc2[nH]c(=O)[nH]c2c1` [Example 39, 4-Methyl-3-(2-oxo-1,3-dihydrobenzimidazol-5-yl)benzonitrile], the IC50 was 1580 nM. On to `CC(C)Oc1cccc(OC(F)(F)F)c1-c1ccc2[nH]c(=O)[nH]c2c1` [Example 88, 5-[2-Isopropoxy-6-(trifluoromethoxy)phenyl]-1,3-dihydrobenzimidazol-2-one], for which the IC50 is 7.94 nM.

`Cc1ccc(OCC(C)C)c(-c2ccc3[nH]c(=O)[nH]c3c2)c1` [Example 15, 5-(2-Isobutoxy-5-methyl-phenyl)-1,3-dihydrobenzimidazol-2-one]: the IC50 was 31.6 nM. The same measure, in the same setting: as for `O=c1[nH]c2ccc(-c3c(Cl)cc(Cl)cc3Cl)cc2[nH]1` [Example 51, 5-(2,4,6-Trichlorophenyl)-1,3-dihydrobenzimidazol-2-one], the figure is 501 nM; as for `Cc1c(-c2ccc3[nH]c(=O)[nH]c3c2)cccc1-c1noc(C2CC2)n1` [Example 73, 5-[3-(5-Cyclopropyl-1,2,4-oxadiazol-3-yl)-2-methyl-phenyl]-1,3-dihydrobenzimidazol-2-one], 31.6 nM. Same read-out and setting: as for `Cc1c(CN2CCOC(C(F)(F)F)C2)cccc1-c1ccc2[nH]c(=O)[nH]c2c1` (racemic) [Example 151, (±)-5-[2-Methyl-3-[[2-(trifluoromethyl)morpholin-4-yl]methyl]phenyl]-1,3-dihydrobenzimidazol-2-one], the figure is 31.6 nM; as for `O=c1[nH]c2ccc(-c3cc(C(F)(F)F)ccc3Cl)cc2[nH]1` [Example 25, 5-[2-Chloro-5-(trifluoromethyl)phenyl]-1,3-dihydrobenzimidazol-2-one], 251 nM. The same measure, in the same setting: as for `O=c1[nH]c2ccc(-c3ccccc3C(F)(F)F)cc2[nH]1` [Example 4, 5-[2-(Trifluoromethyl)phenyl]-1,3-dihydrobenzimidazol-2-one], the figure is 501 nM; as for `Cc1c(CN2CCN(C(=O)OC(C)(C)C)CC2)cccc1-c1ccc2[nH]c(=O)[nH]c2c1` [Example 155, tert-Butyl 4-[[2-methyl-3-(2-oxo-1,3-dihydrobenzimidazol-5-yl)phenyl]methyl]piperazine-1-carboxylate], 316 nM; as for `Cc1cccc(-c2ccccc2)c1-c1ccc2[nH]c(=O)[nH]c2c1` [Example 179, 5-(2-Methyl-6-phenyl-phenyl)-1,3-dihydrobenzimidazol-2-one], 63.1 nM. Consider `Cc1c(-c2ccc3[nH]c(=O)sc3c2)cccc1-c1noc(C2CC2)n1` [Example 74, 6-[3-(5-Cyclopropyl-1,2,4-oxadiazol-3-yl)-2-methyl-phenyl]-3H-1,3-benzothiazol-2-one], for which the IC50 was 3980 nM. Still for that read-out and setting: as for `Cc1c(-c2ccc3[nH]c(=O)sc3c2)cccc1-c1nc(C2CC2)no1` [Example 202, 6-[3-(3-Cyclopropyl-1,2,4-oxadiazol-5-yl)-2-methyl-phenyl]-3H-1,3-benzothiazol-2-one], the figure is 3980 nM; as for `O=c1[nH]c2ccc(-c3c(Cl)ccc(CN4CCCCC4)c3Cl)cc2[nH]1` [Example 140, 5-[2,6-Dichloro-3-(1-piperidylmethyl)phenyl]-1,3-dihydrobenzimidazol-2-one], 398 nM. On the same count and under the same terms, the result for `Cc1c(CN2CC3CC(C2)O3)cccc1-c1ccc2[nH]c(=O)[nH]c2c1` [Example 158, 5-[2-Methyl-3-(6-oxa-3-azabicyclo[3;1;1]heptan-3-ylmethyl)phenyl]-1,3-dihydrobenzimidazol-2-one] reads 6310 nM.
